According to patent publication US20090239926A1, “METHODS FOR THE TREATMENT OF PSORIASIS OR PSORIATIC ARTHRITIS USING CYCLOPROPYL-N-CARBOXAMIDE” (priority 2008, published 2009):
Where “and” joins values, the source holds several entries; their conditions need not be identical. Identical values can stand only once.

How the values were obtained:
[1] = system: cAMP in PGE2-stimulated human PBMC; test: PGE2-induced cAMP elevation in human PBMC; type: cell-based; conditions: PGE2 10 μM
From the text: Prostaglandin E2 (PGE2) binds to prostanoid receptors on monocytes, T cells and other leukocytes and consequently elevates intracellular cAMP levels, resulting in inhibition of cellular responses. The combination of PGE2 and a PDE4 inhibitor synergistically elevates cAMP levels in these cell types, and the elevation of cAMP in PBMC caused by PDE4 inhibitors in the presence of PGE2 is proportional to the inhibitory activity of that PDE4 inhibitor.
Human PBMCs were isolated as described above and plated in 96-well plates at 1×10^6 cells per well in RPMI-1640. The cells were pre-treated with Compound A in a final concentration of 2% DMSO in duplicate at 37° C. in a humidified incubator at 5% CO2 for one hour. The cells were then stimulated with PGE2 (10 μM) (Sigma) for one hour. The cells were lysed with HCl, 0.1N final concentration to inhibit phosphodiesterase activity and the plates were frozen at −20° C. The cAMP produced was measured using cAMP (low pH) Immunoassay kit (R&D Systems).

[2] = system: fMLF-induced neutrophil LTB4 production; test: fMLF-induced neutrophil LTB4 production; type: cell-based; conditions: Homo sapiens, 0.5 h, 1 μM fMLP, 30 minutes
Experimental: Formyl-Met-Leu-Phe (fMLP, Sigma) is a bacterially derived peptide that activates neutrophils to rapidly degranulate, migrate, and adhere to endothelial cells. Among the contents of the neutrophil granule is leukotriene B4 (LTB4), a product of arachidonic acid metabolism and itself a neutrophil stimulant. Compound A was tested for the ability to block fMLF-induced neutrophil LTB4 production.
Human neutrophils were isolated from human leukocyte units by dextran sedimentation as described in Coligan, J. E., et al., Current Protocols in Immunology, ed. R. Coico. Vol. 2. 2002: 2-3. The neutrophils were resuspended in phosphate-buffered saline without calcium or magnesium (BioWhittaker) containing 10 mM HEPES pH 7.2 and plated in 96-well tissue culture plates at a concentration of 1.7×10^6 cells/well. Cells were treated with 50 μM thimerosal (Sigma)/1 mM CaCl2/1 mM MgCl2 for 15 minutes at 37° C. 5% CO2, then treated with Compound A in a final DMSO concentration of 0.01% in duplicate for 10 minutes. Neutrophils were stimulated with 1 μM fMLP for 30 minutes, then lysed by the addition of methanol (20% final concentration) and frozen in a dry ice/isopropanol bath for 10 minutes. Lysates were stored at −70° C. until the LTB4 content was measured by competitive LTB4 ELISA (R&D systems).

[3] = system: CD11b expression on neutrophils; test: fMLF-induced neutrophil CD11b expression; type: cell-based; conditions: Homo sapiens, 0.5 h, 30 nM fMLF, 30 minutes, flow cytometry
Experimental: CD18/CD11b (Mac-1) expression on neutrophils was measured with the following modifications. (Derian, C. K., et al., J Immunol, 1995. 154(1): 308-17). Neutrophils were isolated as described above, then resuspended in complete medium at 1×10^6 cells/ml, pretreated with Compound A at 10, 1, 0.1, 0.01, and 0 μM in duplicate at a final DMSO concentration of 0.1% for 10 minutes at 37° C. 5% CO2. Cells were then stimulated with 30 nM fMLF for 30 minutes and then chilled to 4° C. Cells were treated with rabbit IgG (Jackson ImmunoResearch Labs, West Grove, Pa., USA) (10 μg/1×10^6 cells) to block Fc receptors, stained with CD18-FITC and CD11b-PE (Becton Dickinson), and analyzed by flow cytometry on a FACSCalibur. CD18/CD11b expression (mean fluorescence) in the absence of stimulation was subtracted from all samples to obtain inhibition curves and calculate IC50.

human PDE2 = human PDE2 (Homo sapiens, UniProt O00408); test: Specificity: PDE2; type: biochemical
Experimental: (§1) The specificity of Compound A for PDE4 was assessed by testing at a single concentration (10 μM) against bovine PDE1, human PDE2, PDE3 and PDE5 from human platelets, and PDE6 from bovine retinal rod outer segments.

bovine PDE1 = test: Specificity: PDE1; type: biochemical; conditions: at 10 μM
Experimental: as §1

[4] = system: TNF-α production by synoviocytes from rheumatoid arthritis patients; test: TNF-α production by human rheumatoid synovial membrane cells; type: cell-based; conditions: 48 hours culture, ELISA
Experimental: Human Rheumatoid Synovial Membrane Cell: Rheumatoid synovial membrane tissue samples were processed to dissociate the cells from the matrix by digesting the tissue with Collagenase A and DNAse. The cells were then plated into a 96-well flat-bottom plate at 1×10^6/well in RPMI (10% FCS) and treated with Compound A and controls (in triplicate). The cells were cultured for 48 hours at 37° C. in 5% CO2 before supernatants were harvested and analyzed by ELISA.
Compound A was solubilized under sterile conditions in filter-sterilized dimethyl sulphoxide (DMSO). The vehicle control contained the same concentration of DMSO used as the diluent in the highest concentration of drug used. A combined treatment of anti-TNF-α and IL-1RA, both at 10 μg/ml, was used as a positive control.

Lymph node cells (LNC) = test: Lymph node cells of collagen-immunized mice stimulated in vitro with type II collagen or anti-CD3 mAb; type: cell-based; conditions: FIG. 6
From the text: Ex Vivo Procedure: Mice were bled and lymph nodes were excised. Lymph node cells (LNC) were stimulated in vitro with antigen (type II collagen) or mitogen (anti-CD3 mAb) in the presence of Compound A.

[5] = system: LPS-stimulated human PBMC TNF-α production; test: LPS-induced TNF-α production in human PBMC; type: cell-based; conditions: LPS 100 ng/ml, 18-20 hours
Experimental: LPS-induced TNF-α production in Human PBMC: Human peripheral blood mononuclear cells (PBMC) (2×10^5 cells) were plated in 96-well flat-bottom Costar tissue culture plates (Corning, N.Y., USA) in triplicate. Compound A was dissolved in DMSO (Sigma) and further dilutions were done in culture medium immediately before use. The final DMSO concentration in all samples was 0.25%. Various concentration of Compound A was added to cells one hour before stimulation. Cells were stimulated with LPS (Sigma, St. Louis, Mo., USA) at 100 ng/ml, in the absence or presence of Compound A. Cells were incubated for 18-20 hours at 37 in 5% CO2 and supernatants were then collected, diluted with culture medium and assayed for TNF-α levels by ELISA (Endogen, Boston, Mass., USA) (Muller, G. W., et al., J Med Chem, 1996. 39(17): 3238-40).

Sequence of human PDE2 (O00408 whole entry): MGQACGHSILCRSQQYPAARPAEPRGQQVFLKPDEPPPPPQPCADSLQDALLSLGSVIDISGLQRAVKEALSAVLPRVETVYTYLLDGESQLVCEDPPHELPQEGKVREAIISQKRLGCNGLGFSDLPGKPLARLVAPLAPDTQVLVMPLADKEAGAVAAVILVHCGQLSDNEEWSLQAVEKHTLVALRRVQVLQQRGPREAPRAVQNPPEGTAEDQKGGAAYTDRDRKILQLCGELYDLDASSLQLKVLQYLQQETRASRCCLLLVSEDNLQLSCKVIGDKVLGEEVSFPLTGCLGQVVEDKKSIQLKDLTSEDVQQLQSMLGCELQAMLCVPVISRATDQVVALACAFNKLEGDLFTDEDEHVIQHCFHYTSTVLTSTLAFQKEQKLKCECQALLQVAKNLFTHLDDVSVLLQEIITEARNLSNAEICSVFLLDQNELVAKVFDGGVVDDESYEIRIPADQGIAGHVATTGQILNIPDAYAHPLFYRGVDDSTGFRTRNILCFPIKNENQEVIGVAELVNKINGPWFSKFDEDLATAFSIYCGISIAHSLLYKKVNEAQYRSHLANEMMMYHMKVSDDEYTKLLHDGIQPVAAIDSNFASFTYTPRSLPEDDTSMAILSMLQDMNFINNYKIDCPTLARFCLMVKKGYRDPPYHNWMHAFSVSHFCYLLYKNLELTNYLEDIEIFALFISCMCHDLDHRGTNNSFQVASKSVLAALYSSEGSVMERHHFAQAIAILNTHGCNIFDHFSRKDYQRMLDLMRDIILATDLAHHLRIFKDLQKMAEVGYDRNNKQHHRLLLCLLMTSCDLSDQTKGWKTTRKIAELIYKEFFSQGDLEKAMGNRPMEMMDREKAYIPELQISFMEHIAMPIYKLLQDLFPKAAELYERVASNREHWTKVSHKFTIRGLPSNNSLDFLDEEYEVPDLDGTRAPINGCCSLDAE

CCOc1cc([C@@H](CS(C)(=O)=O)N2Cc3cccc(NC(=O)C4CC4)c3C2=O)ccc1OC [Compound A, cyclopropyl-N-{2-[(1S)-1-(3-ethoxy-4-methoxyphenyl)-2-(methylsulfonyl)ethyl]-3-oxoisoindoline-4-yl}carboxamide]
EC50 [1]: 6.1 µM and 2.9 µg/mL | IC50 [2]: 10 nM and 0.0047 µg/mL | IC50 [3]: 30 nM and 0.014 µg/mL | inhibition at 10 µM (human PDE2): -14% | PDE1 % inhibition (bovine PDE1): 30% | IC50 [4]: 100 nM | production of the Th2 cytokine IL-5 (Lymph node cells (LNC)): unaffected | IFN-γ production (Lymph node cells (LNC); dose-dependent): inhibited | T cell proliferation (Lymph node cells (LNC); dose-dependent): inhibited | TNF-α production (Lymph node cells (LNC); dose-dependent): inhibited | IC50 [5]: 51 nM and 0.024 µg/mL
